In ChEMBL document CHEMBL4414672, “Synthesis of certain benzothieno[3,2-d]pyrimidine derivatives as a selective SIRT2 inhibitors” (Eur J Med Chem, 2020):

Legend:
Format in all cases: functional
HCT-15 = assay: Growth inhibition of human HCT15 cells at 10^-5 M incubated for 48 hrs by sulforhodamine B assay; conditions: HCT-15, 48 h, read-out: GI
SW-620 = assay: Growth inhibition of human SW620 cells at 10^-5 M incubated for 48 hrs by sulforhodamine B assay; conditions: SW-620, 48 h, read-out: GI
NCI/ADR-RES = assay: Growth inhibition of human NCI/ADR-RES cells at 10^-5 M incubated for 48 hrs by sulforhodamine B assay; conditions: read-out: GI
RXF 393 = assay: Growth inhibition of human RXF393 cells at 10^-5 M incubated for 48 hrs by sulforhodamine B assay; conditions: RXF 393, 48 h, read-out: GI
MDA-MB-231 = assay: Growth inhibition of human MDA-MB-231 cells at 10^-5 M incubated for 48 hrs by sulforhodamine B assay; conditions: MDA-MB-231, 48 h, read-out: GI
HCT-116 = assay: Growth inhibition of human HCT116 cells at 10^-5 M incubated for 48 hrs by sulforhodamine B assay; conditions: HCT-116, 48 h, read-out: GI
M14 = assay: Growth inhibition of human M14 cells at 10^-5 M incubated for 48 hrs by sulforhodamine B assay; conditions: M14, 48 h, read-out: GI
DU-145 = assay: Growth inhibition of human DU145 cells at 10^-5 M incubated for 48 hrs by sulforhodamine B assay; conditions: DU-145, 48 h, read-out: GI
HL-60(TB) = assay: Growth inhibition of human HL-60(TB) cells at 10^-5 M incubated for 48 hrs by sulforhodamine B assay; conditions: HL-60, 48 h, read-out: GI
SN12C = assay: Growth inhibition of human SN12C cells at 10^-5 M incubated for 48 hrs by sulforhodamine B assay; conditions: read-out: GI
TK-10 = assay: Growth inhibition of human TK10 cells at 10^-5 M incubated for 48 hrs by sulforhodamine B assay; conditions: TK-10, 48 h, read-out: GI
ACHN = assay: Growth inhibition of human ACHN cells at 10^-5 M incubated for 48 hrs by sulforhodamine B assay; conditions: read-out: GI
SF-268 = assay: Growth inhibition of human SF268 cells at 10^-5 M incubated for 48 hrs by sulforhodamine B assay; conditions: SF-268, 48 h, read-out: GI
SK-MEL-5 = assay: Growth inhibition of human SK-MEL-5 cells at 10^-5 M incubated for 48 hrs by sulforhodamine B assay; conditions: SK-MEL-5, 48 h, read-out: GI
OVCAR-8 = assay: Growth inhibition of human OVCAR8 cells at 10^-5 M incubated for 48 hrs by sulforhodamine B assay; conditions: OVCAR-8, 48 h, read-out: GI
SNB-75 = assay: Growth inhibition of human SNB75 cells at 10^-5 M incubated for 48 hrs by sulforhodamine B assay; conditions: SNB-75, 48 h, read-out: GI
UACC-62 = assay: Growth inhibition of human UACC62 cells at 10^-5 M incubated for 48 hrs by sulforhodamine B assay; conditions: UACC-62, 48 h, read-out: GI
IGROV-1 = assay: Growth inhibition of human IGROV1 cells at 10^-5 M incubated for 48 hrs by sulforhodamine B assay; conditions: IGROV-1, 48 h, read-out: GI
CCRF-CEM = assay: Growth inhibition of human CCRF-CEM cells at 10^-5 M incubated for 48 hrs by sulforhodamine B assay; conditions: read-out: GI
SNB-19 = assay: Growth inhibition of human SNB19 cells at 10^-5 M incubated for 48 hrs by sulforhodamine B assay; conditions: SNB-19, 48 h, read-out: GI
LOX IMVI = assay: Growth inhibition of human LOXIMVI cells at 10^-5 M incubated for 48 hrs by sulforhodamine B assay; conditions: read-out: GI
NCI-H460 = assay: Growth inhibition of human NCI-H460 cells at 10^-5 M incubated for 48 hrs by sulforhodamine B assay; conditions: NCI-H460, 48 h, read-out: GI
NCI-H322M = assay: Growth inhibition of human NCI-H322M cells at 10^-5 M incubated for 48 hrs by sulforhodamine B assay; conditions: read-out: GI
Hs-578T = assay: Growth inhibition of human Hs 578T cells at 10^-5 M incubated for 48 hrs by sulforhodamine B assay; conditions: read-out: GI
A498 = assay: Growth inhibition of human A498 cells at 10^-5 M incubated for 48 hrs by sulforhodamine B assay; conditions: A498, 48 h, read-out: GI
A549 = assay: Growth inhibition of human A549/ATCC cells at 10^-5 M incubated for 48 hrs by sulforhodamine B assay; conditions: A549, 48 h, read-out: GI
OVCAR-3 = assay: Growth inhibition of human OVCAR3 cells at 10^-5 M incubated for 48 hrs by sulforhodamine B assay; conditions: OVCAR-3, 48 h, read-out: GI
SR = assay: Growth inhibition of human SR cells at 10^-5 M incubated for 48 hrs by sulforhodamine B assay; conditions: read-out: GI
786-0 = assay: Growth inhibition of human 786-0 cells at 10^-5 M incubated for 48 hrs by sulforhodamine B assay; conditions: 786-0, 48 h, read-out: GI
MOLT-4 = assay: Growth inhibition of human MOLT4 cells at 10^-5 M incubated for 48 hrs by sulforhodamine B assay; conditions: MOLT-4, 48 h, read-out: GI
NCI-H522 = assay: Growth inhibition of human NCI-H522 cells at 10^-5 M incubated for 48 hrs by sulforhodamine B assay; conditions: NCI-H522, 48 h, read-out: GI
Malme-3M = assay: Growth inhibition of human MALME-3M cells at 10^-5 M incubated for 48 hrs by sulforhodamine B assay; conditions: read-out: GI
SK-MEL-28 = assay: Growth inhibition of human SK-MEL-28 cells at 10^-5 M incubated for 48 hrs by sulforhodamine B assay; conditions: SK-MEL-28, 48 h, read-out: GI
T47D = assay: Growth inhibition of human T47D cells at 10^-5 M incubated for 48 hrs by sulforhodamine B assay; conditions: read-out: GI
MCF7 = assay: Growth inhibition of human MCF7 cells at 10^-5 M incubated for 48 hrs by sulforhodamine B assay; conditions: MCF7, 48 h, read-out: GI
SK-OV-3 = assay: Growth inhibition of human SKOV3 cells at 10^-5 M incubated for 48 hrs by sulforhodamine B assay; conditions: SK-OV-3, 48 h, read-out: GI
NCI-H23 = assay: Growth inhibition of human NCI-H23 cells at 10^-5 M incubated for 48 hrs by sulforhodamine B assay; conditions: NCI-H23, 48 h, read-out: GI
OVCAR-5 = assay: Growth inhibition of human OVCAR5 cells at 10^-5 M incubated for 48 hrs by sulforhodamine B assay; conditions: OVCAR-5, 48 h, read-out: GI
SF-295 = assay: Growth inhibition of human SF295 cells at 10^-5 M incubated for 48 hrs by sulforhodamine B assay; conditions: SF-295, 48 h, read-out: GI

Compound | inhibition of growth at 10 µM (HCT-15) | inhibition of growth at 10 µM (SW-620) | inhibition of growth at 10 µM (NCI/ADR-RES) | inhibition of growth at 10 µM (RXF 393) | inhibition of growth at 10 µM (MDA-MB-231) | inhibition of growth at 10 µM (HCT-116) | inhibition of growth at 10 µM (M14) | inhibition of growth at 10 µM (DU-145) | inhibition of growth at 10 µM (HL-60(TB)) | inhibition of growth at 10 µM (SN12C) | inhibition of growth at 10 µM (TK-10) | inhibition of growth at 10 µM (ACHN) | inhibition of growth at 10 µM (SF-268) | inhibition of growth at 10 µM (SK-MEL-5) | inhibition of growth at 10 µM (OVCAR-8) | inhibition of growth at 10 µM (SNB-75) | inhibition of growth at 10 µM (UACC-62) | inhibition of growth at 10 µM (IGROV-1) | inhibition of growth at 10 µM (CCRF-CEM) | inhibition of growth at 10 µM (SNB-19) | further results
O=[N+]([O-])c1cccc(C2NC(=S)Nc3c2sc2ccc(Cl)cc32)c1 (stereo not drawn) | -0.11% | -0.61% | -1.46% | -9.88% | 23.7% | 13.4% | 2.86% | -8.3% | -2.41% | 7.47% | -6.1% | 13% | 4.17% | 4.44% | 4.42% | 24.4% | 8.94% | 27.5% | -11.8% | 8.69% | inhibition of growth at 10 µM (LOX IMVI): 7.83%; inhibition of growth at 10 µM (NCI-H460): 11.4%; inhibition of growth at 10 µM (NCI-H322M): 6.48%; inhibition of growth at 10 µM (Hs-578T): 11.4%; inhibition of growth at 10 µM (A498): 19.7%; inhibition of growth at 10 µM (A549): 2.45%; inhibition of growth at 10 µM (OVCAR-3): 7.97%; inhibition of growth at 10 µM (SR): 20.3%; inhibition of growth at 10 µM (786-0): 1.48%; inhibition of growth at 10 µM (MOLT-4): 9.49%; inhibition of growth at 10 µM (NCI-H522): 13.7%; inhibition of growth at 10 µM (Malme-3M): 17.3%; inhibition of growth at 10 µM (SK-MEL-28): -8.2%; inhibition of growth at 10 µM (T47D): 30.9%; inhibition of growth at 10 µM (MCF7): -8.3%; inhibition of growth at 10 µM (SK-OV-3): 10.5%; inhibition of growth at 10 µM (NCI-H23): 14.5%; inhibition of growth at 10 µM (OVCAR-5): 0.45%; inhibition of growth at 10 µM (SF-295): 5.63%
NC(=O)CSC1=Nc2c(sc3ccc(Cl)cc23)C(c2cccc([N+](=O)[O-])c2)N1 (stereo not drawn) | -3.38% | -4.82% | -4.88% | -12.1% | 7.36% | 6.66% | -2.31% | -14.8% | -2.94% | 1.64% | -16.6% | 8.24% | -4.2% | 4.8% | -3.56% | 5.27% | 6.2% | 22% | -22% | -7.64% | inhibition of growth at 10 µM (LOX IMVI): 3.56%; inhibition of growth at 10 µM (NCI-H460): 19.3%; inhibition of growth at 10 µM (NCI-H322M): 3.97%; inhibition of growth at 10 µM (Hs-578T): 1.5%; inhibition of growth at 10 µM (A498): 20.2%; inhibition of growth at 10 µM (A549): -4.42%; inhibition of growth at 10 µM (OVCAR-3): -4.8%; inhibition of growth at 10 µM (SR): 4.41%; inhibition of growth at 10 µM (786-0): -0.38%; inhibition of growth at 10 µM (MOLT-4): 3.86%; inhibition of growth at 10 µM (NCI-H522): 6.5%; inhibition of growth at 10 µM (Malme-3M): 3.6%; inhibition of growth at 10 µM (SK-MEL-28): -21.2%; inhibition of growth at 10 µM (T47D): 23.9%; inhibition of growth at 10 µM (MCF7): 22.4%; inhibition of growth at 10 µM (SK-OV-3): 4.62%; inhibition of growth at 10 µM (NCI-H23): 4.2%; inhibition of growth at 10 µM (OVCAR-5): -5.8%; inhibition of growth at 10 µM (SF-295): -2.8%
